Patent US20080051418A1, “Arylalkanoic Acid Derivative” (priority 2004, published 2008)
Like-named read-outs stand apart in the source and are kept apart here.

Assays:
PPARγ-RXRα heterodimer = target: T1, PPARγ-RXRα heterodimer (Homo sapiens, UniProt P37231); assay: PPARγ-RXRα heterodimer ligand activity (luciferase reporter); format: cell-based; details: PPARγ:RXRα:4ERPP/CHO-K1 cells, 18-24 hr, concentration showing 50% of the maximum induction rate
T1 construct: expressed in transfected cells; host or cells: CHO-K1
T1 sequence (P37231 1-505): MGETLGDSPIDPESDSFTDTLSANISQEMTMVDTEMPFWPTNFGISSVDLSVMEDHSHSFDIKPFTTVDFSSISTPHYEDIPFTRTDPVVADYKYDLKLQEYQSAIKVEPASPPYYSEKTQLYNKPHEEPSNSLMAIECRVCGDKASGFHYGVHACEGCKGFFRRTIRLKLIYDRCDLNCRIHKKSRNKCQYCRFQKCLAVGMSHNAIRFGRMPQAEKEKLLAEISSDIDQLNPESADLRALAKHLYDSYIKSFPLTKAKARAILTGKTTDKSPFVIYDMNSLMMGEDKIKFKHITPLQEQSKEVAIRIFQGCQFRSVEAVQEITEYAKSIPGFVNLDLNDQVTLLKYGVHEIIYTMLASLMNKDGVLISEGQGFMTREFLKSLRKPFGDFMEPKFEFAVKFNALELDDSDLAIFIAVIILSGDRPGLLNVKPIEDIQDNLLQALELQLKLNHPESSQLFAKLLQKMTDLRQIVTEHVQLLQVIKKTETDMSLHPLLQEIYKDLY
T1 sequence (P19793 1-462 partner): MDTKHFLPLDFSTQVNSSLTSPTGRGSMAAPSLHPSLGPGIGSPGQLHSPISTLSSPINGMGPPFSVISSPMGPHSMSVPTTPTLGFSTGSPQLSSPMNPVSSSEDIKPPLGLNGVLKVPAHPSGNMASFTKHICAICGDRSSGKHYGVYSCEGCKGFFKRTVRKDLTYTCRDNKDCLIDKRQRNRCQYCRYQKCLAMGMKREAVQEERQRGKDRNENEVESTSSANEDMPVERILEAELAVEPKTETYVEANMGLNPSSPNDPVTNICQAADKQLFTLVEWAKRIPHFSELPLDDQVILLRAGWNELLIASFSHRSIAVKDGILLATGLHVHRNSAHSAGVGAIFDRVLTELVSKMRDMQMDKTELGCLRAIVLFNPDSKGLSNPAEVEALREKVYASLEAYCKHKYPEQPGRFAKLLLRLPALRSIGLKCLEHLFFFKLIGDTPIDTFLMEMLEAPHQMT
How it was run: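 CHO-K1 cells carrying PPARγ, RXRα and a 4ERPP luciferase reporter, exposed to compound 18–24 h at 37 °C in Ham F12 with 0.1% fatty acid-free BSA. Luciferase induction expressed relative to untreated cells (= 1). EC50 is concentration giving 50% of maximal induction.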

KKA^y mice [1] = assay: Blood glucose and blood lipid (triglyceride) lowering action in mice; format: in vivo; details: Mus musculus, po, 96 h, 0.005% in powder diet, 4 days, non-administration group = 100%
From the text: The test compound was mixed with a powder diet (CE-2, CLEA JAPAN, INC.) at a proportion of 0.005% (0.01% for the compound of Example 105) and freely given to KKA^y mice (9 to 12-week-old, 5 mice per group) which are obesity-insulin independent diabetes mellitus (type-2 diabetes) models, for 4 days. During this period, water was freely given. The blood was drawn from the orbital venous plexus. Glucose and triglyceride in the plasma separated from the blood were quantitated using L Type Wako Glu2 (Wako Pure Chemical Industries, Ltd.) and L Type Wako TG•H (Wako Pure Chemical Industries, Ltd.), respectively, according to an enzyme method.

PPARδ-RXRα heterodimer = target: T2, PPARδ-RXRα heterodimer (Homo sapiens, UniProt Q03181); assay: PPARδ-RXRα heterodimer ligand activity (luciferase reporter); format: cell-based; details: transformant of Reference Example 9a of WO03/099793, 36-48 hr, concentration showing 50% of the maximum induction rate
T2 construct: expressed in transfected cells
T2 sequence (Q03181 1-441): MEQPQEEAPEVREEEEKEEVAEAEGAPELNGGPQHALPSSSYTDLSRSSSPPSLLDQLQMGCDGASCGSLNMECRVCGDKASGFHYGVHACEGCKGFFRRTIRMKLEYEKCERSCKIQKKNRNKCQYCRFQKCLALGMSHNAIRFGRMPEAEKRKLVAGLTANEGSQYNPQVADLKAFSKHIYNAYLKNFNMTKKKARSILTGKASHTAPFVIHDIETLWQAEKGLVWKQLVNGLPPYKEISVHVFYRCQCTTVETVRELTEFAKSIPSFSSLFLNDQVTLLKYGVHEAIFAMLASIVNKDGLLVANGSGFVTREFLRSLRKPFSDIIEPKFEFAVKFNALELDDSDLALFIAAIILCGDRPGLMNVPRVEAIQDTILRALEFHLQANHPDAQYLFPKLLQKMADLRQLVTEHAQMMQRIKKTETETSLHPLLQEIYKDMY
T2 sequence (P19793 1-462 partner): T1 sequence (P19793 1-462 partner)
Procedure: The transformant described in Reference Example 9a of WO03/099793 was suspended in a DMEM medium [manufactured by Life technologies, Inc., US] containing 0.1% fatty acid-free bovine serum albumin (BSA) (manufactured by Wako Pure Chemical Industries, Ltd.), and inoculated to each well of a 96 well white plate [manufactured by Corning Coster Corporation, US] by 80 μl to 1×10^4 cells/well. Then, the test compound (20 μl) was added, and cultured under the conditions of 37° C., 5% CO2 for 36-48 hr. The medium was removed from the 96 well white plate, 40 μl of PicaGene LT 7.5 (manufactured by Wako Pure Chemical Industries, Ltd.) diluted 2-fold with HBSS (HANKS' BALANCED SALT SOLUTION) [manufactured by BIO WHITTAKER, US] was added and, after stirring, the luciferase activity was determined using the 1420 ARVO Multilabel Counter [manufactured by PerkinElmer, US].
The induction rate was calculated from the luciferase activity of each test compound based on the luciferase activity of the test compound non-administration group as 1. The test compound concentration and the induction rate were analyzed by PRISM [manufactured by GraphPad Software, Inc., US] to calculate EC50 value (compound concentration showing 50% of the maximum value of induction rate) of the test compound.

KKA^y mice [2] = assay: Plasma antiatherogenic index increasing action in mice; format: in vivo; details: Mus musculus, po, 96 h, 0.005% in powder diet, 4 days, increase rate of (HDL cholesterol/total cholesterol)×100, non-administration group = 100%
Procedure: The test compound was mixed with a powder diet (CE-2, CLEA JAPAN, INC.) at a proportion of 0.005% (0.01% for the compound of Example 105) and freely given to KKA^y mice (9 to 12-week-old, 5 mice per group) which are obesity-insulin independent diabetes mellitus (type-2 diabetes) models, for 4 days. During this period, water was freely given. The blood was drawn from fundus and the components were measured using the plasma separated from the blood. The total cholesterol was quantified using L Type Wako cholesterol (Wako Pure Chemical Industries, Ltd.). In addition, an HDL cholesterol precipitation reagent (Wako Pure Chemical Industries, Ltd.) was added to a part of the plasma to allow precipitation of a non-HDL lipoprotein, and the cholesterol (HDL cholesterol) of the supernatant was measured. The plasma antiatherogenic index [(HDL cholesterol/total cholesterol)×100] was calculated from these cholesterol values.

[3] = lowering rate of plasma glucose, read-out: hypoglycemic action (%)
[4] = lowering rate of plasma triglyceride, read-out: hypolipidemic action (%)

SMILES | EC50 (PPARγ-RXRα heterodimer) [nM] | EC50 (PPARδ-RXRα heterodimer) [nM] | melting point [°C] | inhibition in vivo at 0.005 % (KKA^y mice [1]; [3]) [%] | inhibition in vivo at 0.005 % (KKA^y mice [1]; [4]) [%] | change in vivo at 0.005 % (KKA^y mice [2]) [%]
COc1cccc(CC(=O)O)c1OCCCc1cc(OC(C)C)nn1Cc1ccc(F)cc1Cl [Example 64, (2-{3-[1-(2-chloro-4-fluorobenzyl)-3-isopropoxy-1H-pyrazol-5-yl]propoxy}-3-methoxyphenyl)acetic acid] | 11 | 93 | – | 59 | 71 | –
CCn1cc(CC(=O)O)c(OCCCc2ccc(OC(C)C)cc2Oc2ccc(C(F)(F)F)cn2)n1 [Example 108, {1-ethyl-3-[3-(4-isopropoxy-2-{[5-(trifluoromethyl)pyridin-2-yl]oxy}phenyl)propoxy]-1H-pyrazol-4-yl}acetic acid] | – | – | – | – | – | 12
COCCOc1ccc(CCCOc2nn(C)cc2CC(=O)O)c(Oc2ncc(C(F)(F)F)cc2Cl)c1 [Example 122, (3-{3-[2-{[3-chloro-5-(trifluoromethyl)pyridin-2-yl]oxy}-4-(2-methoxyethoxy)phenyl]propoxy}-1-methyl-1H-pyrazol-4-yl)acetic acid] | 4.1 | 76 | 127 to 129 | 72 | 33 | –
COCOc1ccc(CCCOc2nn(Cc3ccccc3)cc2CC(=O)O)c(Oc2ncc(C(F)(F)F)cc2Cl)c1 [Example 112, (3-{3-[2-{[3-chloro-5-(trifluoromethyl)pyridin-2-yl]oxy}-4-(methoxymethoxy)phenyl]propoxy}-1-benzyl-1H-pyrazol-4-yl)acetic acid] | 0.57 | 57 | 108 to 109 | – | – | –
CC(C)Cn1nc(OCCCc2ccc(OC(C)C)cc2Oc2ncc(C(F)(F)F)cc2Cl)cc1CCC(=O)O [Example 143, 3-{3-[3-(2-{[3-chloro-5-(trifluoromethyl)pyridin-2-yl]oxy}-4-isopropoxyphenyl)propoxy]-1-isobutyl-1H-pyrazol-5-yl}propanoic acid] | 1.4 | 11 | 71 to 73 | – | – | –
CC(C)Oc1ccc(CCCOc2cc(CCC(=O)O)n(-c3ccccc3)n2)c(OCc2ccc(C(F)(F)F)cc2)c1 [Example 166, 3-{3-[3-(4-isopropoxy-2-{[4-(trifluoromethyl)benzyl]oxy}phenyl)propoxy]-1-phenyl-1H-pyrazol-5-yl}propanoic acid] | 24 | 2.2 | 118 to 119 | – | – | –
CC(C)Oc1ccc(CCCOc2cc(CCC(=O)O)n(C(C)C)n2)c(Oc2ncc(C(F)(F)F)cc2Cl)c1 [Example 142, 3-{3-[3-(2-{[3-chloro-5-(trifluoromethyl)pyridin-2-yl]oxy}-4-isopropoxyphenyl)propoxy]-1-isopropyl-1H-pyrazol-5-yl}propanoic acid] | 7 | 14 | 127.5 to 128.5 | – | – | –

Further molecules by falling EC50 (PPARγ-RXRα heterodimer), results first:

EC50 (PPARγ-RXRα heterodimer) [nM] | EC50 (PPARδ-RXRα heterodimer) [nM] | melting point [°C] | SMILES | inhibition in vivo at 0.005 % (KKA^y mice [1]; [3]) [%] | inhibition in vivo at 0.005 % (KKA^y mice [1]; [4]) [%] | change in vivo at 0.005 % (KKA^y mice [2]) [%]
16 | 11 | 104 to 106 | CC(C)Oc1cc(CCCOc2cc(CCC(=O)O)n(-c3ccccc3)n2)cc(COc2ccc(Cl)cc2Cl)c1 [Example 196, 3-[3-(3-{3-[(2,4-dichlorophenoxy)methyl]-5-isopropoxyphenyl}propoxy)-1-phenyl-1H-pyrazol-5-yl]propanoic acid] | – | – | –
6 | 74 | 108 to 109 | COc1cccc(CC(=O)O)c1OCCCc1cc(OC(C)C)nn1Cc1ccc(Cl)cc1C [Example 68, (2-{3-[1-(4-chloro-2-methylbenzyl)-3-isopropoxy-1H-pyrazol-5-yl]propoxy}-3-methoxyphenyl)acetic acid] | – | – | –
3.3 | 7.6 | 84 to 85 | CC(C)Oc1ccc(CCCOc2ncccc2CC(=O)O)c(Oc2ncc(Cl)cc2Cl)c1 [Example 121, [2-(3-{2-[(3,5-dichloropyridin-2-yl)oxy]-4-isopropoxyphenyl}propoxy)pyridin-3-yl]acetic acid] | – | – | –
1.6 | 6.9 | 73 to 74 | CCn1nc(OCCCc2ccc(OC(C)C)cc2Oc2ncc(C(F)(F)F)cc2Cl)cc1CCC(=O)O [Example 141, 3-{3-[3-(2-{[3-chloro-5-(trifluoromethyl)pyridin-2-yl]oxy}-4-isopropoxyphenyl)propoxy]-1-ethyl-1H-pyrazol-5-yl}propanoic acid] | 44 | 41 | –
0.78 | 4.3 | – | CCn1cc(CC(=O)O)c(OCCCc2ccc(OC(C)C)cc2Oc2ncc(C(F)(F)F)cc2Cl)n1 [Example 117, {3-[3-(2-{[3-chloro-5-(trifluoromethyl)pyridin-2-yl]oxy}-4-isopropoxyphenyl)propoxy]-1-ethyl-1H-pyrazol-4-yl}acetic acid] | 49 | 18 | –
0.42 | 2.5 | 86 to 88 | CC(C)Oc1ccc(CCCOc2cc(CCC(=O)O)n(-c3ccccc3)n2)c(Oc2ncc(C(F)(F)F)cc2Cl)c1 [Example 136, 3-{3-[3-(2-{[3-chloro-5-(trifluoromethyl)pyridin-2-yl]oxy}-4-isopropoxyphenyl)propoxy]-1-phenyl-1H-pyrazol-5-yl}propanoic acid] | 57 | 38 | –
